Source: PubChem BioAssay AID2060498 (Molecular Pharmacology Branch, DTP, NCI, 2025)

Tested on: 171881-019-R-J1-PDC tumor spheroids, viability
Test: Anticancer human tumor 171881-019-R-J1-PDC patient-derived invasive breast carcinoma cell line growth inhibition [GQUAD]
Details: spheroids with HUVEC and MSC; for IC50: curve of first compound; for viability, T/C: stronger effect = lower value
Procedure, shortened: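 Multi-cell-type spheroids of tumor cells with HUVEC and mesenchymal stem cells, treated with drug combinations. Concentrations descend in half-log steps from near clinical Cmax, or from 10 microM where Cmax is unknown; viability read-out.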

[1] = second compound 0.0316 µM, first compound 0.0316 µM
[2] = second compound 0.0316 µM, first compound 0.316 µM
[3] = second compound 0.1 µM, first compound 0.0316 µM
[4] = second compound 0.1 µM, first compound 0.316 µM
[5] = second compound 0.316 µM, first compound 0.0316 µM
[6] = second compound 0.316 µM, first compound 0.316 µM
[7] = second compound 1 µM, first compound 0.0316 µM
[8] = second compound 1 µM, first compound 0.316 µM
[9] = second compound 3.16 µM, first compound 0.0316 µM
[10] = second compound 3.16 µM, first compound 0.316 µM
[11] = second compound 10 µM, first compound 0.0316 µM
[12] = second compound 10 µM, first compound 0.316 µM
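Note: spheroids exposed to compounds for 7 days.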
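Throughout, for viability, T/C: 100% = DMSO vehicle control viability.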

Question: What does the source list for `CC[C@@]1(O)C(=O)OCc2c1cc1n(c2=O)Cc2cc3c(CN(C)C)c(O)ccc3nc2-1` + Cc1[nH]c2ccc(F)cc2c1-c1nc2c3cccnc3c3ncccc3c2[nH]1?
Answer: IC50 (second compound 0.0316 µM): 96.1 nM; IC50 (second compound 0.1 µM): 122 nM; IC50 (second compound 0.316 µM): 142 nM; IC50 (second compound 1 µM): 119 nM; IC50 (second compound 3.16 µM): < 0.999 nM; IC50 (second compound 10 µM): < 0.999 nM; viability, T/C (second compound 0.0316 µM, first compound 0.000999 µM): 97%; viability, T/C (second compound 0.0316 µM, first compound 0.00316 µM): 86.9%; viability, T/C (second compound 0.0316 µM, first compound 0.00999 µM): 97.9%; viability, T/C [1]: 87.1%; viability, T/C (second compound 0.0316 µM, first compound 0.0999 µM): 48.8%; viability, T/C [2]: 37.8%; viability, T/C (second compound 0.1 µM, first compound 0.000999 µM): 108%; viability, T/C (second compound 0.1 µM, first compound 0.00316 µM): 99.1%; viability, T/C (second compound 0.1 µM, first compound 0.00999 µM): 93.1%; viability, T/C [3]: 87.1%; viability, T/C (second compound 0.1 µM, first compound 0.0999 µM): 50.8%; viability, T/C [4]: 39.7%; viability, T/C (second compound 0.316 µM, first compound 0.000999 µM): 101%; viability, T/C (second compound 0.316 µM, first compound 0.00316 µM): 104%; viability, T/C (second compound 0.316 µM, first compound 0.00999 µM): 90.5%; viability, T/C [5]: 82.8%; viability, T/C (second compound 0.316 µM, first compound 0.0999 µM): 53.9%; viability, T/C [6]: 38.1%; viability, T/C (second compound 1 µM, first compound 0.000999 µM): 87.6%; viability, T/C (second compound 1 µM, first compound 0.00316 µM): 68%; viability, T/C (second compound 1 µM, first compound 0.00999 µM): 86%; viability, T/C [7]: 70.3%; viability, T/C (second compound 1 µM, first compound 0.0999 µM): 52.8%; viability, T/C [8]: 37.7%; viability, T/C (second compound 3.16 µM, first compound 0.000999 µM): 21.7%; viability, T/C (second compound 3.16 µM, first compound 0.00316 µM): 17.7%; viability, T/C (second compound 3.16 µM, first compound 0.00999 µM): 22.7%; viability, T/C [9]: 24.3%; viability, T/C (second compound 3.16 µM, first compound 0.0999 µM): 22.9%; viability, T/C [10]: 16.7%; viability, T/C (second compound 10 µM, first compound 0.000999 µM): 46.2%; viability, T/C (second compound 10 µM, first compound 0.00316 µM): 41.7%; viability, T/C (second compound 10 µM, first compound 0.00999 µM): 45.2%; viability, T/C [11]: 38.4%; viability, T/C (second compound 10 µM, first compound 0.0999 µM): 37.6%; viability, T/C [12]: 20.7%

Question: `COc1cc(C2c3cc4c(cc3C(OC3OC5COC(C)OC5C(O)C3O)C3COC(=O)C23)OCO4)cc(OC)c1O` (centres undefined) + Cc1[nH]c2ccc(F)cc2c1-c1nc2c3cccnc3c3ncccc3c2[nH]1 was tested. Which IC50 (second compound 0.0316 µM) did it give?
Answer: The IC50 was 946 nM.

Question: And the IC50 (second compound 0.1 µM)?
Answer: The IC50 was 765 nM.

Question: What about the IC50 (second compound 0.316 µM) of the same compound?
Answer: The IC50 was 826 nM.

Question: And the IC50 (second compound 1 µM)?
Answer: The IC50 was 862 nM.

Question: What about the IC50 (second compound 3.16 µM) of the same compound?
Answer: Its IC50 is under 31.6 nM.

Question: And the IC50 (second compound 10 µM)?
Answer: The IC50 was under 31.6 nM.

Question: And the viability, T/C [1]?
Answer: The viability, T/C was 93.2%.

Question: And the viability, T/C (second compound 0.0316 µM, first compound 0.1 µM)?
Answer: The viability, T/C was 88.2%.

Question: What about the viability, T/C [2] of the same compound?
Answer: The viability, T/C was 74.5%.

Question: What about the viability, T/C (second compound 0.0316 µM, first compound 1 µM) of the same compound?
Answer: The viability, T/C was 46.9%.

Question: And the viability, T/C (second compound 0.0316 µM, first compound 3.16 µM)?
Answer: The viability, T/C was 33.3%.

Question: And the viability, T/C (second compound 0.0316 µM, first compound 10 µM)?
Answer: Its viability, T/C is 22.6%.

Question: What about the viability, T/C [3] of the same compound?
Answer: The viability, T/C was 97.9%.

Question: What about the viability, T/C (second compound 0.1 µM, first compound 0.1 µM) of the same compound?
Answer: The viability, T/C was 98.4%.

Question: And the viability, T/C [4]?
Answer: Its viability, T/C is 77.7%.

Question: What about the viability, T/C (second compound 0.1 µM, first compound 1 µM) of the same compound?
Answer: Its viability, T/C is 40.8%.

Question: What about the viability, T/C (second compound 0.1 µM, first compound 3.16 µM) of the same compound?
Answer: Its viability, T/C is 33.3%.

Question: And the viability, T/C (second compound 0.1 µM, first compound 10 µM)?
Answer: The viability, T/C was 24.2%.

Question: What about the viability, T/C [5] of the same compound?
Answer: The viability, T/C was 98.7%.

Question: And the viability, T/C (second compound 0.316 µM, first compound 0.1 µM)?
Answer: Its viability, T/C is 92.2%.

Question: What about the viability, T/C [6] of the same compound?
Answer: The viability, T/C was 72.8%.

Question: And the viability, T/C (second compound 0.316 µM, first compound 1 µM)?
Answer: The viability, T/C was 43.8%.

Question: And the viability, T/C (second compound 0.316 µM, first compound 3.16 µM)?
Answer: The viability, T/C was 33.3%.

Question: What about the viability, T/C (second compound 0.316 µM, first compound 10 µM) of the same compound?
Answer: Its viability, T/C is 23.1%.

Question: And the viability, T/C [7]?
Answer: Its viability, T/C is 80.1%.

Question: What about the viability, T/C (second compound 1 µM, first compound 0.1 µM) of the same compound?
Answer: The viability, T/C was 87.6%.

Question: What about the viability, T/C [8] of the same compound?
Answer: The viability, T/C was 66.3%.

Question: And the viability, T/C (second compound 1 µM, first compound 1 µM)?
Answer: Its viability, T/C is 45.2%.

Question: What about the viability, T/C (second compound 1 µM, first compound 3.16 µM) of the same compound?
Answer: Its viability, T/C is 37.7%.

Question: And the viability, T/C (second compound 1 µM, first compound 10 µM)?
Answer: Its viability, T/C is 23.4%.

Question: What about the viability, T/C [9] of the same compound?
Answer: The viability, T/C was 28.9%.

Question: And the viability, T/C (second compound 3.16 µM, first compound 0.1 µM)?
Answer: The viability, T/C was 18.7%.

Question: What about the viability, T/C [10] of the same compound?
Answer: The viability, T/C was 22.6%.

Question: And the viability, T/C (second compound 3.16 µM, first compound 1 µM)?
Answer: Its viability, T/C is 18.7%.

Question: What about the viability, T/C (second compound 3.16 µM, first compound 3.16 µM) of the same compound?
Answer: The viability, T/C was 17.7%.

Question: And the viability, T/C (second compound 3.16 µM, first compound 10 µM)?
Answer: Its viability, T/C is 11.5%.

Question: And the viability, T/C [11]?
Answer: Its viability, T/C is 40%.

Question: And the viability, T/C (second compound 10 µM, first compound 0.1 µM)?
Answer: The viability, T/C was 50.6%.

Question: And the viability, T/C [12]?
Answer: Its viability, T/C is 35%.

Question: And the viability, T/C (second compound 10 µM, first compound 1 µM)?
Answer: The viability, T/C was 33.5%.

Question: And the viability, T/C (second compound 10 µM, first compound 3.16 µM)?
Answer: The viability, T/C was 26.5%.

Question: What about the viability, T/C (second compound 10 µM, first compound 10 µM) of the same compound?
Answer: The viability, T/C was 15.8%.
